A word on the MIC: it is the lowest concentration that inhibits growth of the organism. Broadly, the IC50 is the concentration that gives 50% inhibition. Usually CC50 stands for the concentration at which the toxic effect on the cells reaches its halfway point. As a reminder, the EC50 is the concentration giving half of the maximal effect.

Consider three molecules from patent publication US11584744B2 (UNIVERSITY OF WASHINGTON, priority 2017, dated 2023).

The test system of data set [1] is S. aureus MSSA (ATCC 29213). The experiment in a line: MIC susceptibility testing. In kind it is cell-based, Staphylococcus aureus. Particulars: Staphylococcus aureus, 18 h; read-out: S. aureus MSSA (ATCC 29213) MIC.
Data set [2] relates to E. faecium VRE (ATCC 51559). Description: MIC susceptibility testing. In kind it is cell-based, Enterococcus faecium. Particulars: Enterococcus faecium. The essentials: (§1)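 CLSI broth microdilution with two-fold compound dilutions, in triplicate; cells added in medium at 1×10^6 CFUs/mL, DMSO ≤0.5%. Media: MHB for S. aureus, CA-MHB for E. coli and E. faecium, CA-MHB plus 3% laked horse blood for S. pyogenes (5% CO2).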

Data set [3] has as its target recombinant S. aureus MetRS enzyme (Staphylococcus aureus, UniProt A0A0H2XID2). Description: Inhibition of SaMetRS, ATP depletion assay. In kind it is biochemical. The essentials:
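IC50 values come from sigmoidal fits of percent inhibition, based on ATP left after 120 min as measured by Kinase-Glo. Substrates were 20 μM L-methionine and 150 nM ATP, added after compounds sat 15 min at room temperature with 25 nM His-tagged SaMetRS, bulk E. coli tRNA, pH 7.9 HEPES buffer and 2% DMSO.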

In another data set the test system is E. faecium (ATCC 19434). The experiment in a line: MIC susceptibility testing. Format: cell-based. Particulars: Enterococcus faecium, ATCC19434; read-out: E. faecium (ATCC 19434) MIC. An excerpt: (§2) Media and culture conditions. Mueller Hinton broth (MHB), cation adjusted Mueller Hinton broth (CA-MHB), and Brain Heart Infusion broth (BHI) were purchased from Becton Dickinson (Franklin Lakes, N.J.). Tryptic soy agar (TSA) plates, TSA with 5% sheep blood plates, and CA-MHB with 3% laked horse blood were purchased from Remel (San Diego, Calif.). MHB was used to assay all Staphylococcus aureus strains. CA-MHB was used for Staphylococcus epidermidis, Enterococcus faecalis, Enterococcus faecium, Escherichia coli, and Pseudomonas aeruginosa. CA-MHB supplemented with 3% laked horse blood was used for Streptococcus pneumoniae and Streptococcus pyogenes. Staphylococcus, Enterococcus, Escherichia, and Pseudomonas strains were cultured at 37° C. with ambient air. Streptococcus strains were cultured in 37° C. with 5% CO2. Separate conditions for radiolabeled precursor uptake assays are described below.
(§3) Susceptibility testing: Minimum inhibitory concentration (MIC) determinations were performed in triplicate in 96-well round bottom microtiter plates (Corning, Corning N.Y.) as described by the Clinical and Laboratory Standards Institute (CLSI). Serial two-fold dilutions of compounds were added to plates in 50 μL volumes. An additional 50 μL of media containing bacterial cells (1×10^6 CFUs/mL) was then added to each well. Maximum DMSO concentrations were 0.5%. Plates were incubated at 37° C. for at least 18 h before reading the susceptibility result by optical absorbance (OD600) using a BioTek ELx800. The lowest concentration causing ≥90% growth inhibition compared to the untreated control was recorded as the MIC (and also corresponded to the visual MIC). MICs were measured at least twice and the higher value (if different) was recorded herein.

The test system of the next data set is E. faecalis (ATCC 29212). The experiment in a line: MIC susceptibility testing. In kind it is cell-based. Particulars: Enterococcus faecalis, ATCC29212; read-out: E. faecalis (ATCC 29212) MIC.
Excerpt: as §2, §3

Data set [4] has as its system S. aureus MRSA (ATCC 43300). Description: MIC susceptibility testing. In kind it is cell-based. Particulars: Staphylococcus aureus; read-out: S. aureus MRSA (ATCC 43300) MIC.
Excerpt: as §2, §3

A short description of data set [5]: Cytotoxicity testing on mammalian cells (AlamarBlue, 48 hours). In kind it is cell-based. Particulars: human. Here is the method: Cytotoxicity testing on mammalian cells: Compounds were assayed for cytotoxicity against CRL-8155 (human lymphoblasts) and HepG2 cells (human hepatocellular carcinoma). Cells were exposed to serial dilutions of compounds for 48 hours and toxicity was quantified using AlamarBlue (ThermoFisher Scientific, Waltham, Mass.). Assays were performed in quadruplicate and EC50 values were calculated with non-linear regression methods using software by the Collaborative Drug Database (Burlingame, Calif. www.collaborativedrug.com)
(Alamar Blue is a resazurin reagent that responds to reducing activity.)

Data set [6] is described as follows: Liver microsome stability. Format: in vitro ADME. Here is the method: Microsome stability. Liver microsome stability assays were done by contract research laboratory, Wuxi AppTec Co. (Hubei, China). Briefly, compounds at 1 μM concentration were incubated in singlet with human or CD-1 mouse liver microsomes for 6 time points (0, 5, 10, 20, 30, and 60 min). Loss of parent compound was quantified by liquid chromatography/tandem mass spectrometry.

A further data set deals with S. aureus. The experiment in a line: Serum shift assays (MIC with and without 50% human serum). In kind it is cell-based, Staphylococcus aureus. Particulars: Staphylococcus aureus. Here is the method: Serum shift assays: To assess the role of protein binding on compound susceptibility, MIC determinations were performed in triplicate in the presence and absence of 50% human serum. Serial threefold dilutions of 2× compound were generated in MHB and aliquoted onto 96 well plates with a DMSO limit of 0.5%. Bacteria were adjusted to 1*10^8 CFUs/mL in MHB, then further diluted 1:100 in MHB and 100% heat deactivated filter sterilized pooled human serum. Fifty microliters were added to each well of the corresponding plates, and the plates were incubated at 37° C. for ˜20 h. The lowest concentration causing ≥90% growth inhibition was recorded as the MIC.

Data set [7] in a line: Protein binding assays, equilibrium dialysis. Format: in vitro ADME, mouse. Particulars: 1 μM, equilibrium dialysis 22 hours. Here is the method:
Protein binding assays: Compound binding to mouse plasma proteins was determined using 96-well equilibrium dialyzer plates (SDIS 9610EN, Nest Group, Inc.). Mouse plasma ([…]-SW-F, BioreclamationIVT, Westbury, N.Y.) containing compound (final concentration 1 μM) was added to a donor chamber as a 150 μL volume. The buffer solution (0.2 mM phosphate buffer, 150 μL) was added to the reciprocal acceptor chamber. Each compound was tested in triplicate. To prepare calibration solution for compound quantifications, blank wells were prepared containing only mouse plasma in a donor well and buffer solution in its acceptor well. The equilibrium dialysis was carried out by rocking the plate for 22 hours in 37° C. Once equilibrium was reached, the plasma and buffer solution from both wells were carefully removed for further analysis with liquid chromatography-tandem mass spectrometry. Plasma solution and internal standard were mixed in the presence of 80% acetonitrile. After centrifuging the solution, the supernatant was transferred to an insert. Similarly, the buffer solution from the acceptor side was prepared containing 40% acetonitrile. Calibration standards for donor and acceptor sides were prepared with compound concentrations of 50 nM, 100 nM, 250 nM, 500 nM, and 1 μM. The compound concentrations from each well were calculated from the calibration curves using Microsoft Excel. The percentage of the test compound bound was determined as follows: % Free=(Concentration buffer chamber/Concentration plasma chamber)×100% % Bound=100%−% Free

For data set [8], the system named is S. aureus MRSA (ATCC 33591). The experiment in a line: MIC susceptibility testing. In kind it is cell-based, Staphylococcus aureus. Particulars: Staphylococcus aureus, MRSA ATCC33591; read-out: (G) MRSA (ATCC33591) MIC. The essentials:
as §1

A further data set concerns T. cruzi. The experiment in a line: T. cruzi growth inhibition. Format: cell-based, Trypanosoma cruzi. Particulars: read-out: (E) T. cruzi EC50.
For another data set, the target named is MetRS (C. parvum) (Cryptosporidium parvum, UniProt Q5CVN0). The experiment in a line: MetRS (C. parvum) enzyme inhibition. Format: biochemical. Particulars: read-out: (C) MetRS (C. parvum) IC50.
MetRS (C. parvum), sequence (Q5CVN0 entry or part of it): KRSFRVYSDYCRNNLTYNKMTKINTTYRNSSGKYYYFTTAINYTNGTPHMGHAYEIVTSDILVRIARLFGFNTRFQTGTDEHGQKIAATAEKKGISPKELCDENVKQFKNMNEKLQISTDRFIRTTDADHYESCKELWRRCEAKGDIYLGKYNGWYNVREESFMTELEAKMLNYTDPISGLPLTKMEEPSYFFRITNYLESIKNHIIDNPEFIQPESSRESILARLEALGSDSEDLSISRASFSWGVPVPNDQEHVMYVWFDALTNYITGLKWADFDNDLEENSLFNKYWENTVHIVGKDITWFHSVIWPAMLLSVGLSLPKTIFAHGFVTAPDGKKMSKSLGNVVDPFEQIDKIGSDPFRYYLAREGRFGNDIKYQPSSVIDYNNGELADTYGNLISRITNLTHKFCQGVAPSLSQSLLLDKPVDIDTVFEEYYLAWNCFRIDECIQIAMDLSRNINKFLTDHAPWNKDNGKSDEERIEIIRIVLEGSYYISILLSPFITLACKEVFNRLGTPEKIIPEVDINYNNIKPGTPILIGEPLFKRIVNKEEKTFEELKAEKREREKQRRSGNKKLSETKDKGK
The target of a further data set is T1, MetRS (T. brucei) (Trypanosoma brucei brucei, UniProt Q38C91).
T1 sequence (Q38C91 1-773): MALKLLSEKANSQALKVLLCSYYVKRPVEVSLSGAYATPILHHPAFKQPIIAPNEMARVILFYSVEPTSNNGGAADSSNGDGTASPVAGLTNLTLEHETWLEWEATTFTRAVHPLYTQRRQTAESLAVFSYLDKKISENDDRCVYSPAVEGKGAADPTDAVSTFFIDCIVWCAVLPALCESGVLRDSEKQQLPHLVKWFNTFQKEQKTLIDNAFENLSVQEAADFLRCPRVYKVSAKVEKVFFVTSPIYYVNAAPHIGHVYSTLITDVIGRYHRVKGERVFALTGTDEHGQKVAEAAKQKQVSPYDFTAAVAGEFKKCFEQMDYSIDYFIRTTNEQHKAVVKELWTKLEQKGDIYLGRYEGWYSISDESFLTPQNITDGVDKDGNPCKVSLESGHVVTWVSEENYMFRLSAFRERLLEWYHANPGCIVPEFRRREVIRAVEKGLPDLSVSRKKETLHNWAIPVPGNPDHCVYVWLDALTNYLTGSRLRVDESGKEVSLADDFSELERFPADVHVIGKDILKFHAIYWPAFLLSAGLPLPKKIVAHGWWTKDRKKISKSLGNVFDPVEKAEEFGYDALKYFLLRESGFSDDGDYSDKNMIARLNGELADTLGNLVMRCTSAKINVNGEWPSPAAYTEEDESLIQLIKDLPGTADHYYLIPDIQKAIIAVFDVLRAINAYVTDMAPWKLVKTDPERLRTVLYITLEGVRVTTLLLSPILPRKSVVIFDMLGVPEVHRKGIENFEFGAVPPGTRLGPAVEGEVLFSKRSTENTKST
Description: MetRS (T. brucei) enzyme inhibition. In kind it is biochemical.

[9] abbreviates: read-out: E. faecium VRE (ATCC 51559) MIC.
[10] abbreviates: recombinant enzyme, lower limit of detection 0.025 μM, read-out: MetRS S. aureus (enzyme) IC50.
The mark [11] stands for this setting: CRL-8155 cells (human lymphoblasts), read-out: Mamm. cells (CRL8155) CC50.
Setting [12] is: HepG2 cells (human hepatocellular carcinoma), read-out: Mamm. cells (HepG2) CC50.

≈ marks a conversion by molar mass, not a printed value. Like-named read-outs stand apart in the source and are kept apart here.

recombinant S. aureus MetRS enzyme, sequence (A0A0H2XID2 2-657): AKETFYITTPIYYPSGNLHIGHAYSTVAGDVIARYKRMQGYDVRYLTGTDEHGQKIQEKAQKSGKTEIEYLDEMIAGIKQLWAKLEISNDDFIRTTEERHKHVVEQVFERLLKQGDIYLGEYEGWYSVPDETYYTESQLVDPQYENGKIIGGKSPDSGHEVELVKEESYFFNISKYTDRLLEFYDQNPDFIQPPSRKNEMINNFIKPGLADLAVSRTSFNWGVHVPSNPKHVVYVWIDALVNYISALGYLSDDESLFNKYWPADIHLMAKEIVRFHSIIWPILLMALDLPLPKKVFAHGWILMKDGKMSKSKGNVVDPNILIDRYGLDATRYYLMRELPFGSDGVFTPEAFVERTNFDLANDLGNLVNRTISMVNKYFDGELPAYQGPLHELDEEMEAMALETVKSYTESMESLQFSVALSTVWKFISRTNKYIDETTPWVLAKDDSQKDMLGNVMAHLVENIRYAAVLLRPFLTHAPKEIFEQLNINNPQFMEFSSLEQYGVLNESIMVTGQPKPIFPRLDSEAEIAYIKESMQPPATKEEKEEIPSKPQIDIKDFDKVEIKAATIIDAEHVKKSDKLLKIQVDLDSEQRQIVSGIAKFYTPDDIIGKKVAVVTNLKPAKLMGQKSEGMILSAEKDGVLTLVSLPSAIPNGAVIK

Regarding `Oc1cc(NCCCNCc2cc(Cl)cc(Cl)c2)nc2ccccc12` [Compound 1312, 2-((3-((3,5-dichlorobenzyl)amino)propyl)amino)quinolin-4(1H)-one], the MIC turned out to be 2.5 µg/mL (≈ 6.64 µM) in data set [1]; 0.156 µg/mL (≈ 0.415 µM) in data set [2] (setting [9]); 0.156 µg/mL (≈ 0.415 µM) with E. faecium (ATCC 19434); 0.313 µg/mL (≈ 0.832 µM) with E. faecalis (ATCC 29212); 5 µg/mL (≈ 13.3 µM) in data set [4]. Moreover, the half-inhibitory concentration (IC50) in data set [3] (setting [10]) was < 25 nM. For the same molecule, the CC50 at 48 h in [5] (setting [11]) and in data set [5] (setting [12]) was > 7.5 µg/mL in each case.
For the molecule `O=c1[nH]c(Cc2ccc(Cl)cc2Cl)cn1Cc1nc2ccc(F)nc2[nH]1` [Compound 1962, 4-(2,4-dichlorobenzyl)-1-((5-fluoro-3H-imidazo[4,5-b]pyridin-2-yl)methyl)-1,3-dihydro-2H-imidazol-2-one, reference compound], the MIC in data set [1] turned out to be 2.5 µg/mL (≈ 6.37 µM); in data set [2] (setting [9]), 1.25 µg/mL (≈ 3.19 µM); in the data set with E. faecium (ATCC 19434) it was 1.25 µg/mL (≈ 3.19 µM); in the data set on E. faecalis (ATCC 29212), 5 µg/mL (≈ 12.7 µM); in data set [4], 5 µg/mL (≈ 12.7 µM). Also, the IC50 in data set [3] (setting [10]) was < 25 nM. Moreover, the CC50 at 48 h in data set [5] (setting [11]) and in data set [5] (setting [12]) was > 19.6 µg/mL each time. Also, the half-life at 1 μM in data set [6] (human, human liver microsomes, read-out: Microsome stability: Human T½) was 25.9 min; in data set [6] (mouse liver microsomes, CD-1 mouse, read-out: Microsome stability: Mouse T½), 27 min.
For `CCCn1c(Cc2ccc(Cl)cc2Cl)cn(Cc2nc3nc(F)ccc3[nH]2)c1=O` [Compound 2069, 4-[(2,4-dichlorophenyl)methyl]-1-({5-fluoro-1H-imidazo[4,5-b]pyridin-2-yl}methyl)-3-propyl-2,3-dihydro-1H-imidazol-2-one], the MIC was 18.3 ± 2.2 µg/mL in the data set on S. aureus (50% human serum, read-out: Avg MIC ± SEM (+50% serum)); 0.036 ± 0.03 µg/mL with S. aureus (no serum, read-out: Avg MIC ± SEM (no serum)); 0.445 µg/mL (≈ 1.02 µM) in data set [8]; > 2 µg/mL in data set [2] (E. faecium ATCC 51559, read-out: (I) E. faecium (ATCC 51559) MIC). Further, the “% binding to mouse plasma” value in data set [7] was determined as 99.6%. Moreover, the IC50 is < 25 nM in data set [3] (read-out: (B) MetRS (S. aureus) IC50), < 40 nM on MetRS (C. parvum) and < 40 nM at MetRS (T. brucei). Moreover, the EC50 was found to be 91.3 nM in the data set with T. cruzi (Trypanosoma cruzi) and 176 nM in the data set on T. cruzi.
